The text below walks through data of US20230293458A1, “MULTIBIOTIC AGENTS AND METHODS OF USING THE SAME” (Flagship Pioneering Innovations V, Inc., priority 2017, published 2023).

Data set [1] in a line: Stability of multibiotic agents in Simulated Intestinal Fluid (SIF). Format: in vitro ADME. The note with it: simulated intestinal fluid pH 6.7 with pancreatin, 37° C., 1 μM. In a few lines:
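Compounds at 1 μM final (from 1 mM DMSO stock) incubated at 37 °C with agitation in fresh SIF (FaSSIF plus pancreatin in pH 6.7 phosphate buffer). Aliquots taken at T0 and regular intervals, quenched with 1 volume acetonitrile. Degradation rate determined by LC/MS.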

The nature of data set [2]: Stability of multibiotic agents in Simulated Gastric Fluid (SGF). Format: in vitro ADME. As to conditions: simulated gastric fluid pH 1.6 with pepsin, 37° C., 1 μM. An outline of the steps:
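Compounds were incubated at 1 μM final at 37 °C in simulated gastric fluid containing NaCl, pH 1.6, with FaSSIF powder and 0.1 mg/mL pepsin. Aliquots were taken at T0 and at regular intervals and quenched with acetonitrile. Degradation rates were determined by LC/MS.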

For `CC(=O)CC(=O)O[C@H]1CO[C@H]2[C@@H]1OC[C@H]2OC(=O)CC(C)=O` [Example 115, [(3S,3aR,6R,6aR)-6-(3-oxobutanoyloxy)-2,3,3a,5,6,6a-hexahydrofuro[3,2-b]furan-3-yl] 3-oxobutanoate], in data set [1], the “Assay 3 (SIF) (% @ Remaining 4 hours)” value is given as “B (25-75% of the tested compound remaining)”. In addition, the “Assay 2 (SGF) (% Remaining @ 4 hours)” value in data set [2] is reported as “C (>75% of the tested compound remaining)”.

For `CCCC(=O)Nc1ccc(O)c(C(=O)O)c1` [Example 116, 5-(butanoylamino)-2-hydroxy-benzoic acid], the “Assay 3 (SIF) (% @ Remaining 4 hours)” value in data set [1] is reported as “C (>75% of the tested compound remaining)”. Also, the “Assay 2 (SGF) (% Remaining @ 4 hours)” value in data set [2] is given as “C (>75% of the tested compound remaining)”.

In the case of `CCCC(=O)O[C@@H]1[C@H](OC(=O)CCC)COC(Oc2ccc(N)cc2C(=O)O)[C@@H]1OC(=O)CCC` (stereo partly drawn) [Example 117, 5-amino-2-[(3R,4R,5R)-3,4,5-tri(butanoyloxy)tetrahydropyran-2-yl]oxy-benzoic acid], in data set [1], the “Assay 3 (SIF) (% @ Remaining 4 hours)” value was “C (>75% of the tested compound remaining)”. Further, the “Assay 2 (SGF) (% Remaining @ 4 hours)” value in data set [2] is “C (>75% of the tested compound remaining)”.

`CC(=O)Oc1ccc(/C=C/c2cc(OC(C)=O)cc(OC(C)=O)c2)cc1` [Example 118, [(E)-2-(3,5-diacetoxyphenyl)vinyl]phenyl] acetate]: in data set [1], the “Assay 3 (SIF) (% @ Remaining 4 hours)” value was “C (>75% of the tested compound remaining)”. Also, in data set [2], the “Assay 2 (SGF) (% Remaining @ 4 hours)” value is given as “C (>75% of the tested compound remaining)”.

With `CCCC(=O)O[C@H](C)CC(=O)Oc1ccc2c(c1)oc(=O)c1cc(OC(=O)C[C@@H](C)OC(=O)CCC)c(OC(=O)C[C@@H](C)OC(=O)CCC)cc12` [Example 122, [8,9-bis[[(3R)-3-butanoyloxybutanoyl]oxy]-6-oxo-benzo[c]chromen-3-yl] (3R)-3-butanoyloxybutanoate], the “Assay 3 (SIF) (% @ Remaining 4 hours)” value in data set [1] is “A (<25% of the tested compound remaining)”. Besides, in data set [2], the “Assay 2 (SGF) (% Remaining @ 4 hours)” value is listed as “C (>75% of the tested compound remaining)”.

As to `O=C(/C=C/c1c[nH]c2ccccc12)O[C@H]1CO[C@H]2[C@@H]1OC[C@H]2OC(=O)/C=C/c1c[nH]c2ccccc12` [Example 123, [(3R,3aR,6S,6aR)-6-[(E)-3-(1H-indol-3-yl)prop-2-enoyl]oxy-2,3,3a,5,6,6a-hexahydrofuro[3,2-b]furan-3-yl] (E)-3-(1H-indol-3-yl)prop-2-enoate], in data set [1], the “Assay 3 (SIF) (% @ Remaining 4 hours)” value is “C (>75% of the tested compound remaining)”. In data set [2], the “Assay 2 (SGF) (% Remaining @ 4 hours)” value is recorded as “C (>75% of the tested compound remaining)”.

As to `CC(C)(COC(=O)/C=C/c1c[nH]c2ccccc12)[C@@H](OC(=O)/C=C/c1c[nH]c2ccccc12)C(=O)NCCC(N)=O` [Example 124, [(3R)-4-[(3-amino-3-oxo-propyl)amino]-3-[(E)-3-(1H-indol-3-yl)prop-2-enoyl]oxy-2,2-dimethyl-4-oxo-butyl] (E)-3-(1H-indol-3-yl)prop-2-enoate], the “Assay 3 (SIF) (% @ Remaining 4 hours)” value in data set [1] is recorded as “C (>75% of the tested compound remaining)”. For the same compound, the “Assay 2 (SGF) (% Remaining @ 4 hours)” value in data set [2] was “C (>75% of the tested compound remaining)”.

`CC(C)(COC(=O)/C=C/c1c[nH]c2ccccc12)[C@@H](OC(=O)/C=C/c1c[nH]c2ccccc12)C(=O)NCCCOC(=O)/C=C/c1c[nH]c2ccccc12` [Example 125, 3-[[(2R)-2,4-bis[[(E)-3-(1H-indol-3-yl)prop-2-enoyl]oxy]-3,3-dimethyl-butanoyl]amino]propyl (E)-3-(1H-indol-3-yl)prop-2-enoate]: the “Assay 3 (SIF) (% @ Remaining 4 hours)” value in data set [1] was “C (>75% of the tested compound remaining)”. In addition, the “Assay 2 (SGF) (% Remaining @ 4 hours)” value in data set [2] is reported as “C (>75% of the tested compound remaining)”.

Take `CCCC(=O)NCCCNC(=O)CCC` [Example 126, N-[3-(butanoylamino)propyl]butanamide]: the “Assay 3 (SIF) (% @ Remaining 4 hours)” value in data set [1] is listed as “C (>75% of the tested compound remaining)”. Besides, the “Assay 2 (SGF) (% Remaining @ 4 hours)” value in data set [2] is recorded as “C (>75% of the tested compound remaining)”.

In the case of `CCCC(=O)NCCCCN(CCCNC(=O)CCC)C(=O)CCC` [Example 127, N-[4-[butanoyl-[3-(butanoylamino)propyl]amino]butyl]butanamide], in data set [1], the “Assay 3 (SIF) (% @ Remaining 4 hours)” value is recorded as “C (>75% of the tested compound remaining)”. Besides, in data set [2], the “Assay 2 (SGF) (% Remaining @ 4 hours)” value was “C (>75% of the tested compound remaining)”.

Take `CCCC(=O)NCCCN(CCCCN(CCCNC(=O)CCC)C(=O)CCC)C(=O)CCC` [Example 128, N-[3-[butanoyl-[4-[butanoyl-[3-(butanoylamino)propyl]amino]butyl]amino]propyl]butanamide]: in data set [1], the “Assay 3 (SIF) (% @ Remaining 4 hours)” value is given as “C (>75% of the tested compound remaining)”. For the same compound, the “Assay 2 (SGF) (% Remaining @ 4 hours)” value in data set [2] is “C (>75% of the tested compound remaining)”.

`CCCC(=O)NCCCN(CCCNC(=O)CCC)C(=O)CCC` [Example 129, N-[3-[butanoyl-[3-(butanoylamino)propyl]amino]propyl]butanamide]: in data set [1], the “Assay 3 (SIF) (% @ Remaining 4 hours)” value is “C (>75% of the tested compound remaining)”. In data set [2], the “Assay 2 (SGF) (% Remaining @ 4 hours)” value was “C (>75% of the tested compound remaining)”.

As for `CCCC(=O)N1CCN(C(=O)CCC)CC1` [Example 130, 1-(4-butanoylpiperazin-1-yl)butan-1-one], in data set [1], the “Assay 3 (SIF) (% @ Remaining 4 hours)” value is on record as “C (>75% of the tested compound remaining)”. The “Assay 2 (SGF) (% Remaining @ 4 hours)” value in data set [2] is listed as “C (>75% of the tested compound remaining)”.

As to `CCCC(=O)N(C)CCCN(C)C(=O)CCC` [Example 131, N-[3-[butanoyl(methyl)amino]propyl]-N-methyl-butanamide], the “Assay 3 (SIF) (% @ Remaining 4 hours)” value in data set [1] is “C (>75% of the tested compound remaining)”. For the same compound, the “Assay 2 (SGF) (% Remaining @ 4 hours)” value in data set [2] was “C (>75% of the tested compound remaining)”.

With `CCCC(=O)N[C@H]1CC[C@H](NC(=O)CCC)CC1` [Example 132, trans-N-[4-(butanoylamino)cyclohexyl]butanamide], the “Assay 3 (SIF) (% @ Remaining 4 hours)” value in data set [1] is given as “C (>75% of the tested compound remaining)”. Also, in data set [2], the “Assay 2 (SGF) (% Remaining @ 4 hours)” value is given as “C (>75% of the tested compound remaining)”.

As to `CCCC(=O)NCCC[C@H](NC(=O)CCC)C(=O)O` [Example 133, (2S)-2,5-bis(butanoylamino)pentanoic acid], the “Assay 3 (SIF) (% @ Remaining 4 hours)” value in data set [1] is given as “C (>75% of the tested compound remaining)”. Besides, in data set [2], the “Assay 2 (SGF) (% Remaining @ 4 hours)” value was “C (>75% of the tested compound remaining)”.

For `CCCC(=O)/N=C(/NCCCCNC(=O)CCC)NC(=O)CCC` [Example 134, N-[4-[[(Z)—N,N′-di(butanoyl)carbamimidoyl]amino]butyl]butanamide], the “Assay 3 (SIF) (% @ Remaining 4 hours)” value in data set [1] was “C (>75% of the tested compound remaining)”. In addition, the “Assay 2 (SGF) (% Remaining @ 4 hours)” value in data set [2] is “C (>75% of the tested compound remaining)”.

Take `C[C@@H](O)CC(=O)NCCCNC(=O)C[C@@H](C)O` [Example 135, (3R)-3-hydroxy-N-[3-[[(3R)-3-hydroxybutanoyl]amino]propyl]butanamide]: the “Assay 3 (SIF) (% @ Remaining 4 hours)” value in data set [1] was “C (>75% of the tested compound remaining)”. Further, the “Assay 2 (SGF) (% Remaining @ 4 hours)” value in data set [2] is “C (>75% of the tested compound remaining)”.
